Data taken from the NIST ThermoML archive (doi:10.1021/je060271a).
Numbers after ± are expanded uncertainties.

Conditions: 303.15 K, Liquid, Vibrating tube method

In the case of `CCCCCCC(=O)OCC(COC(=O)CCCCCC)(COC(=O)CCCCCC)COC(=O)CCCCCC` [pentaerythritol tetraheptanoate], the mass density (14618 kPa) is reported as 979.8 ± 1.2 kg/m3, the mass density (14643 kPa) is reported as 979.6 ± 1.2 kg/m3 and the mass density (14669 kPa) is reported as 979.7 ± 1.2 kg/m3. For the same molecule, the mass density (14835 kPa) was 979.7 ± 1.2 kg/m3, the mass density (14866 kPa) was 979.8 ± 1.2 kg/m3 and the mass density (14893 kPa) was 979.8 ± 1.2 kg/m3. It also gave a mass density (14920 kPa) of 979.9 ± 1.2 kg/m3, a mass density (14947 kPa) of 979.9 ± 1.2 kg/m3 and a mass density (14979 kPa) of 979.9 ± 1.2 kg/m3. It also gave a mass density (15006 kPa) of 979.9 ± 1.2 kg/m3, a mass density (15179 kPa) of 980 ± 1.2 kg/m3 and a mass density (15268 kPa) of 980.1 ± 1.2 kg/m3. The mass density (15330 kPa) was 980.1 ± 1.2 kg/m3, the mass density (15358 kPa) was 980.1 ± 1.2 kg/m3 and the mass density (15511 kPa) was 980.2 ± 1.2 kg/m3. For the same molecule, the mass density (15757 kPa) was 980.3 ± 1.2 kg/m3, the mass density (15823 kPa) was 980.4 ± 1.2 kg/m3 and the mass density (15852 kPa) was 980.4 ± 1.2 kg/m3. The mass density (15911 kPa) was 980.5 ± 1.2 kg/m3, the mass density (15969 kPa) was 980.5 ± 1.2 kg/m3 and the mass density (15996 kPa) was 980.5 ± 1.2 kg/m3. The mass density (16084 kPa) was 980.4 ± 1.2 kg/m3, the mass density (16171 kPa) was 980.5 ± 1.2 kg/m3 and the mass density (16226 kPa) was 980.7 ± 1.2 kg/m3. It also gave a mass density (16314 kPa) of 980.7 ± 1.2 kg/m3, a mass density (16348 kPa) of 980.7 ± 1.2 kg/m3 and a mass density (16441 kPa) of 980.7 ± 1.2 kg/m3. It also gave a mass density (16499 kPa) of 980.7 ± 1.2 kg/m3, a mass density (16527 kPa) of 980.8 ± 1.2 kg/m3 and a mass density (16556 kPa) of 980.8 ± 1.2 kg/m3. For the same molecule, the mass density (16591 kPa) was 980.8 ± 1.2 kg/m3, the mass density (16620 kPa) was 980.9 ± 1.2 kg/m3 and the mass density (16684 kPa) was 980.8 ± 1.2 kg/m3. The mass density (16714 kPa) was 981 ± 1.2 kg/m3, the mass density (16809 kPa) was 980.9 ± 1.2 kg/m3 and the mass density (16906 kPa) was 981 ± 1.2 kg/m3. The mass density (16937 kPa) was 981.1 ± 1.2 kg/m3, the mass density (16967 kPa) was 981.1 ± 1.2 kg/m3 and the mass density (17004 kPa) was 981 ± 1.2 kg/m3. The mass density (17035 kPa) was 981 ± 1.2 kg/m3, the mass density (17066 kPa) was 981.1 ± 1.2 kg/m3 and the mass density (17103 kPa) was 981.1 ± 1.2 kg/m3. The mass density (17134 kPa) was 981.1 ± 1.2 kg/m3, the mass density (17305 kPa) was 981.2 ± 1.2 kg/m3 and the mass density (17337 kPa) was 981.2 ± 1.2 kg/m3. The mass density (17369 kPa) was 981.4 ± 1.2 kg/m3, the mass density (17407 kPa) was 981.3 ± 1.2 kg/m3 and the mass density (17756 kPa) was 981.5 ± 1.2 kg/m3. It also gave a mass density (17796 kPa) of 981.5 ± 1.2 kg/m3, a mass density (17831 kPa) of 981.5 ± 1.2 kg/m3 and a mass density (17865 kPa) of 981.5 ± 1.2 kg/m3. For the same molecule, the mass density (17899 kPa) was 981.6 ± 1.2 kg/m3, the mass density (17940 kPa) was 981.7 ± 1.2 kg/m3 and the mass density (17975 kPa) was 981.7 ± 1.2 kg/m3. For the same molecule, the mass density (18052 kPa) was 981.6 ± 1.2 kg/m3, the mass density (18128 kPa) was 981.7 ± 1.2 kg/m3 and the mass density (18164 kPa) was 981.8 ± 1.2 kg/m3. It also gave a mass density (18201 kPa) of 981.7 ± 1.2 kg/m3, a mass density (18237 kPa) of 981.8 ± 1.2 kg/m3 and a mass density (18282 kPa) of 981.7 ± 1.2 kg/m3. The mass density (18319 kPa) was 981.9 ± 1.2 kg/m3, the mass density (18356 kPa) was 981.8 ± 1.2 kg/m3 and the mass density (18394 kPa) was 981.8 ± 1.2 kg/m3. For the same molecule, the mass density (18458 kPa) was 981.9 ± 1.2 kg/m3, the mass density (18488 kPa) was 981.8 ± 1.2 kg/m3 and the mass density (18517 kPa) was 981.8 ± 1.2 kg/m3. The mass density (18612 kPa) was 982 ± 1.2 kg/m3, the mass density (18935 kPa) was 982.2 ± 1.2 kg/m3 and the mass density (18973 kPa) was 982.2 ± 1.2 kg/m3. For the same molecule, the mass density (19005 kPa) was 982.2 ± 1.2 kg/m3, the mass density (19038 kPa) was 982.3 ± 1.2 kg/m3 and the mass density (19070 kPa) was 982.2 ± 1.2 kg/m3. It also gave a mass density (19102 kPa) of 982.2 ± 1.2 kg/m3, a mass density (19342 kPa) of 982.4 ± 1.2 kg/m3 and a mass density (19381 kPa) of 982.5 ± 1.2 kg/m3. For the same molecule, the mass density (19414 kPa) was 982.5 ± 1.2 kg/m3, the mass density (19448 kPa) was 982.5 ± 1.2 kg/m3 and the mass density (19484 kPa) was 982.6 ± 1.2 kg/m3. It also gave a mass density (19774 kPa) of 982.5 ± 1.2 kg/m3, a mass density (19918 kPa) of 982.7 ± 1.2 kg/m3 and a mass density (19954 kPa) of 982.7 ± 1.2 kg/m3. It also gave a mass density (19989 kPa) of 982.8 ± 1.2 kg/m3, a mass density (20030 kPa) of 982.7 ± 1.2 kg/m3 and a mass density (20066 kPa) of 982.9 ± 1.2 kg/m3. For the same molecule, the mass density (20143 kPa) was 982.9 ± 1.2 kg/m3, the mass density (20336 kPa) was 982.9 ± 1.2 kg/m3 and the mass density (20372 kPa) was 982.9 ± 1.2 kg/m3. For the same molecule, the mass density (20409 kPa) was 983 ± 1.2 kg/m3, the mass density (20454 kPa) was 983 ± 1.2 kg/m3 and the mass density (20490 kPa) was 983.1 ± 1.2 kg/m3. It also gave a mass density (20527 kPa) of 983.1 ± 1.2 kg/m3, a mass density (20572 kPa) of 983.1 ± 1.2 kg/m3 and a mass density (20609 kPa) of 983.2 ± 1.2 kg/m3. It also gave a mass density (20647 kPa) of 983.1 ± 1.2 kg/m3, a mass density (20691 kPa) of 983.2 ± 1.2 kg/m3 and a mass density (20729 kPa) of 983.3 ± 1.2 kg/m3. It also gave a mass density (20767 kPa) of 983.1 ± 1.2 kg/m3, a mass density (20812 kPa) of 983.2 ± 1.2 kg/m3 and a mass density (20936 kPa) of 983.2 ± 1.2 kg/m3. For the same molecule, the mass density (20976 kPa) was 983.4 ± 1.2 kg/m3, the mass density (21014 kPa) was 983.4 ± 1.2 kg/m3 and the mass density (21054 kPa) was 983.3 ± 1.2 kg/m3. For the same molecule, the mass density (21101 kPa) was 983.4 ± 1.2 kg/m3, the mass density (21140 kPa) was 983.4 ± 1.2 kg/m3 and the mass density (21179 kPa) was 983.5 ± 1.2 kg/m3. It also gave a mass density (21227 kPa) of 983.4 ± 1.2 kg/m3, a mass density (21267 kPa) of 983.4 ± 1.2 kg/m3 and a mass density (21314 kPa) of 983.5 ± 1.2 kg/m3. The mass density (21354 kPa) was 983.4 ± 1.2 kg/m3, the mass density (21444 kPa) was 983.6 ± 1.2 kg/m3 and the mass density (21526 kPa) was 983.6 ± 1.2 kg/m3. It also gave a mass density (21576 kPa) of 983.5 ± 1.2 kg/m3.
